Test results taken from article PMC9299836 (eLife, 2022).

Tests used:
[1] = target: T1, mGluR2 (Mus musculus, UniProt Q14BI2, A548F); test: Single-molecule FRET (SiMPull) of azi-CRD: population histograms and state occupancy; conditions: azi-CRD, 5 μM modulator, fraction of total area;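 further: Cy3/Cy5-labelled receptor from HEK293T cell lysate captured on anti-FLAG surfaces, apparent FRET efficiency computed from donor and acceptor intensities with crosstalk correction, pooled into population histograms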
[2] = target: T1, mGluR2; test: smFRET of azi-CRD: cross-correlation of donor and acceptor intensities (CRD dynamics) and HMM transition density plots;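 further: single detergent-solubilized receptors captured on antibody-coated flow cells via C-terminal FLAG-tag, imaged by smFRET, donor and acceptor intensity traces from three independent biological replicates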

T1 sequence (Q14BI2 19-872 A548F): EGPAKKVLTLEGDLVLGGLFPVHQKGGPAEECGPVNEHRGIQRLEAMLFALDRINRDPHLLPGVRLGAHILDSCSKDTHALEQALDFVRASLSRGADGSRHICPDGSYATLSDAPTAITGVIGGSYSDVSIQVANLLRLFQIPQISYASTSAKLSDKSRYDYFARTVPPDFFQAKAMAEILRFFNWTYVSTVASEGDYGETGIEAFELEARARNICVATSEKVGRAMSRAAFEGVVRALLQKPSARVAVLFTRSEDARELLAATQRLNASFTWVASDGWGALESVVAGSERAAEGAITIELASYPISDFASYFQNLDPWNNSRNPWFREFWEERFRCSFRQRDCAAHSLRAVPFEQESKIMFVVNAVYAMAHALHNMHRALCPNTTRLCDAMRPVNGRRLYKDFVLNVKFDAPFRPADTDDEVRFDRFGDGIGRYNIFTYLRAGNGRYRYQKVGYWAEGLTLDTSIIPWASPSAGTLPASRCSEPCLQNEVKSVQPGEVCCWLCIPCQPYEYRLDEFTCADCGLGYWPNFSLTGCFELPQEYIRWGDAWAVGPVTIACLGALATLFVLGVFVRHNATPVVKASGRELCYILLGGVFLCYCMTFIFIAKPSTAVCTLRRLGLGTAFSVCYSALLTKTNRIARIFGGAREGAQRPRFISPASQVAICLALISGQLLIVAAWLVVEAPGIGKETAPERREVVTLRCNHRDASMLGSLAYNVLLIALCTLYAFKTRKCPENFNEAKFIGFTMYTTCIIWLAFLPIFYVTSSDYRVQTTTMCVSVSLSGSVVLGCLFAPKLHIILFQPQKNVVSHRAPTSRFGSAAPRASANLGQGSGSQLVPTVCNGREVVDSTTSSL

MNI-137
Mean occupancy, state 4 (active, FRET 0.87) ([1]; 15 μM glutamate): 0.01952
Mean occupancy, state 1 (inactive, FRET 0.24) ([1]; 1000 μM glutamate): 0.00207
Mean occupancy, state 2 (intermediate 1, FRET 0.38) ([1]; 1000 μM glutamate): 0.5597
Mean occupancy, state 3 (intermediate 2, FRET 0.70) ([1]; 1000 μM glutamate): 0.331
Mean occupancy, state 4 (active, FRET 0.87) ([1]; 1000 μM glutamate): 0.1072
Cross Correlation, Mean ([2]; 0μM Glutamate + GPT/Pyruvate + 5μM MNI-137, Time 0.2 s): -0.028
Cross Correlation, Mean ([2]; 0μM Glutamate + GPT/Pyruvate + 5μM MNI-137, Time 0.25 s): -0.03232
Cross Correlation, Mean ([2]; 0μM Glutamate + GPT/Pyruvate + 5μM MNI-137, Time 0.3 s): -0.03245
Cross Correlation, Mean ([2]; 0μM Glutamate + GPT/Pyruvate + 5μM MNI-137, Time 0.35 s): -0.03285
Cross Correlation, Mean ([2]; 0μM Glutamate + GPT/Pyruvate + 5μM MNI-137, Time 0.4 s): -0.02992
Cross Correlation, Mean ([2]; 0μM Glutamate + GPT/Pyruvate + 5μM MNI-137, Time 0.45 s): -0.02563
Cross Correlation, Mean ([2]; 0μM Glutamate + GPT/Pyruvate + 5μM MNI-137, Time 0.5 s): -0.0232
Cross Correlation, Mean ([2]; 0μM Glutamate + GPT/Pyruvate + 5μM MNI-137, Time 0.55 s): -0.0254
Cross Correlation, Mean ([2]; 0μM Glutamate + GPT/Pyruvate + 5μM MNI-137, Time 0.6 s): -0.02539
Cross Correlation, Mean ([2]; 0μM Glutamate + GPT/Pyruvate + 5μM MNI-137, Time 0.65 s): -0.02363
Cross Correlation, Mean ([2]; 0μM Glutamate + GPT/Pyruvate + 5μM MNI-137, Time 0.7 s): -0.02361
Cross Correlation, Mean ([2]; 0μM Glutamate + GPT/Pyruvate + 5μM MNI-137, Time 0.8 s): -0.02074
Cross Correlation, Mean ([2]; 0μM Glutamate + GPT/Pyruvate + 5μM MNI-137, Time 0.85 s): -0.0233
Cross Correlation, Mean ([2]; 0μM Glutamate + GPT/Pyruvate + 5μM MNI-137, Time 0.9 s): -0.02522
Cross Correlation, Mean ([2]; 0μM Glutamate + GPT/Pyruvate + 5μM MNI-137, Time 0.95 s): -0.02254
Cross Correlation, Mean ([2]; 0μM Glutamate + GPT/Pyruvate + 5μM MNI-137, Time 1 s): -0.02263
Cross Correlation, Mean ([2]; 0μM Glutamate + GPT/Pyruvate + 5μM MNI-137, Time 1.05 s): -0.01654
Cross Correlation, Mean ([2]; 0μM Glutamate + GPT/Pyruvate + 5μM MNI-137, Time 1.1 s): -0.01694
Cross Correlation, Mean ([2]; 0μM Glutamate + GPT/Pyruvate + 5μM MNI-137, Time 1.15 s): -0.0245
Cross Correlation, Mean ([2]; 0μM Glutamate + GPT/Pyruvate + 5μM MNI-137, Time 1.2 s): -0.02011
Cross Correlation, Mean ([2]; 0μM Glutamate + GPT/Pyruvate + 5μM MNI-137, Time 1.25 s): -0.02479
Cross Correlation, Mean ([2]; 0μM Glutamate + GPT/Pyruvate + 5μM MNI-137, Time 1.3 s): -0.01941
Cross Correlation, Mean ([2]; 0μM Glutamate + GPT/Pyruvate + 5μM MNI-137, Time 1.35 s): -0.01897
Cross Correlation, Mean ([2]; 0μM Glutamate + GPT/Pyruvate + 5μM MNI-137, Time 1.4 s): -0.02381
Cross Correlation, Mean ([2]; 0μM Glutamate + GPT/Pyruvate + 5μM MNI-137, Time 1.45 s): -0.01493
Cross Correlation, Mean ([2]; 0μM Glutamate + GPT/Pyruvate + 5μM MNI-137, Time 1.5 s): -0.01697
Cross Correlation, Mean ([2]; 0μM Glutamate + GPT/Pyruvate + 5μM MNI-137, Time 1.6 s): -0.01709
Cross Correlation, Mean ([2]; 0μM Glutamate + GPT/Pyruvate + 5μM MNI-137, Time 1.65 s): -0.01348
Cross Correlation, Mean ([2]; 0μM Glutamate + GPT/Pyruvate + 5μM MNI-137, Time 1.7 s): -0.01427
Cross Correlation, Mean ([2]; 0μM Glutamate + GPT/Pyruvate + 5μM MNI-137, Time 1.75 s): -0.0161
Cross Correlation, Mean ([2]; 0μM Glutamate + GPT/Pyruvate + 5μM MNI-137, Time 1.8 s): -0.01106
Cross Correlation, Mean ([2]; 0μM Glutamate + GPT/Pyruvate + 5μM MNI-137, Time 1.85 s): -0.00832
Cross Correlation, Mean ([2]; 0μM Glutamate + GPT/Pyruvate + 5μM MNI-137, Time 1.9 s): -0.01466
Cross Correlation, Mean ([2]; 15μM Glutamate + 5μM MNI-137, Time 0.2 s): -0.09437
Cross Correlation, Mean ([2]; 15μM Glutamate + 5μM MNI-137, Time 0.25 s): -0.08281
Cross Correlation, Mean ([2]; 15μM Glutamate + 5μM MNI-137, Time 0.3 s): -0.0732
Cross Correlation, Mean ([2]; 15μM Glutamate + 5μM MNI-137, Time 0.35 s): -0.06697
Cross Correlation, Mean ([2]; 15μM Glutamate + 5μM MNI-137, Time 0.4 s): -0.05965
Cross Correlation, Mean ([2]; 15μM Glutamate + 5μM MNI-137, Time 0.45 s): -0.05857
Cross Correlation, Mean ([2]; 15μM Glutamate + 5μM MNI-137, Time 0.5 s): -0.05707
Cross Correlation, Mean ([2]; 15μM Glutamate + 5μM MNI-137, Time 0.55 s): -0.05428
Cross Correlation, Mean ([2]; 15μM Glutamate + 5μM MNI-137, Time 0.6 s): -0.04785
Cross Correlation, Mean ([2]; 15μM Glutamate + 5μM MNI-137, Time 0.65 s): -0.04876
Cross Correlation, Mean ([2]; 15μM Glutamate + 5μM MNI-137, Time 0.7 s): -0.04192
Cross Correlation, Mean ([2]; 15μM Glutamate + 5μM MNI-137, Time 0.75 s): -0.0438
Cross Correlation, Mean ([2]; 15μM Glutamate + 5μM MNI-137, Time 0.8 s): -0.04286
Cross Correlation, Mean ([2]; 15μM Glutamate + 5μM MNI-137, Time 0.85 s): -0.04147
Cross Correlation, Mean ([2]; 15μM Glutamate + 5μM MNI-137, Time 0.9 s): -0.0389
